For one data set, the system named is MCF7 (breast carcinoma). The data set is described as follows: SRB cytotoxicity assay, MCF7. As to conditions: mean n = 3, SD 5-10%. Type of data set: cell-based, human. From the text: (§1) All compounds were screened for their cytotoxic activity and tumor cell selectivity using our standard model, previously described, comprising a selection of human tumor cell lines representing different solid tumor entities and non-malignant human fibroblasts (CCD18Co) including the cell line pair A2780/A2780cis, a well-known model of acquired drug resistance.
(§2) Reagents were bought from commercial suppliers and used without further purification. The solvents were dried according to the usual procedures. TLC was performed on silica gel (Macherey-Nagel, detection with UV absorption; Macherey-Nagel, Düren, Germany). […] Numbering in the NMR spectra: 1–20 (diterpene core), 21–24 for O-(CH2)n-N fragment followed by the pyridinium ring, the ethenyl moiety and the indole moiety. […] IR spectra were recorded on a Perkin-Elmer Spectrum Two (UATR Two Unit, Perkin-Elmer GmbH, Rodgau, Germany). […] Both media were supplemented with 10% fetal bovine serum (Biowest, Nuaillé, France) and 1% penicillin-streptomycin (Sigma-Aldrich).
(§3) Cytotoxic activities of compounds were analyzed using the SRB cytotoxicity assay. Cells were seeded in 96-well plates and after 24 h were treated with serial dilutions of compounds for 72 h. All subsequent steps were performed according to the previously described SRB assay protocol. Dose–response curves and calculation of IC50 values, including standard deviations, were carried out using GraphPad Prism8.
(Sulforhodamine B stains cellular protein and so reports cell mass.)

Data set [1] can be described thus: SRB cytotoxicity assay, CCD18Co. Type of data set: cell-based, human. The conditions noted are these: human, CCD18Co non-malignant fibroblasts, 72 h treatment, mean n = 3, SD 5-10%.
Source text: as §1, §2, §3

The subject of data set [2] is A2780cis (resistant derivative of A2780). The data set is described as follows: SRB cytotoxicity assay, A2780cis. As to conditions: for IC50: SRB assay, 72 h treatment, mean n = 3, SD 5-10%; for resistance index (RI): quotient IC50 values A2780cis/A2780; for drug resistance in the A2780/A2780cis model, in words: A2780cis vs A2780. Type of data set: cell-based, human.
Source text: as §1, §2, §3

The subject of data set [3] is A2780 (ovarian carcinoma). The data set is described as follows: SRB cytotoxicity assay, A2780. As to conditions: for selectivity index 1 (SI 1): CCD18Co/A2780; for IC50: SRB assay, 72 h treatment, mean n = 3, SD 5-10%; for tumor cell selectivity, in words: tumor cells vs non-malignant fibroblasts CCD18Co. Type of data set: cell-based, human.
Source text: as §1, §2, §3

For the next data set, the system named is A549 (lung carcinoma). In words: SRB cytotoxicity assay, A549. In kind it is cell-based, human. As to conditions: for selectivity index 2 (SI 2): CCD18Co/A549; for IC50: SRB assay, 72 h treatment, mean n = 3, SD 5-10%.
Source text: as §1, §2, §3

For data set [4], the system named is HT29 (colorectal carcinoma). The data set is described as follows: SRB cytotoxicity assay, HT29. In kind it is cell-based, human. The conditions noted are these: mean n = 3, SD 5-10%.
Source text: as §1, §2, §3

The test system of the next data set is A549 cells. In words: Subcellular localization, live cell fluorescence imaging with AHCS2 and Hoechst 33342. The conditions noted are these: 24 h, 10 µM of 5 or 1 µM of 17 or 25, together with 20 nM AHCS2, Hoechst 33342. In kind it is cell-based, human. The text has this: Next, the subcellular accumulation of compounds 17 and 25 compared to 5 (F16 group) was studied, employing the fluorescent characteristics mediated by the F16 group. Expecting a mitochondrial accumulation of the compounds, our previously described strong mitochondria-targeted and NIR fluorescent agent/mitocan AHCS2 (compound 21 in ref. [4]) was used, thus enabling simultaneous analysis and direct comparison due to different fluorescence spectra.
Analysis of subcellular localization of compounds was performed in A549 cells using the established mitochondrial targeting compound AHCS2 [4] for direct comparison. For all procedures, RPMI 1640 media without phenol-red (Pan-Biotech GmbH, Aidenbach, Germany) was used. Cells were seeded in a µ-Plate 96-well black plate (ibiTreat: #1.5 polymer coverslip bottom, ibidi GmbH, Gräfelfing, Germany) at a cell density of 30.000 per well. After 24 h, cells were treated with 10 µM of compound 5 or 1 µM of compound 17 or 1 µM of compound 25, each together with 20 nM of compound AHCS2. After 24 h, Hoechst 33342 (Sigma-Aldrich) was added and live cell imaging was performed on an Axio Observer 7 (Carl Zeiss Microscopy Deutschland GmbH, Oberkochen, Germany) using the settings for Ex/Em, as follows: Hoechst 33342 (385 nm/425 nm), F16 compounds (475 nm/514 nm), AHCS2 (735 nm/785 nm). For simultaneous analysis, multiple Z-stacked images were taken and resulting pictures were reconstructed using the ZEN 3.5 pro software (Zeiss).

Data set [5] deals with CCD18Co (non-malignant human fibroblasts). The data set is described as follows: SRB cytotoxicity assay, CCD18Co. Type of data set: cell-based. The conditions noted are these: 72 h treatment, mean n = 3, SD 5-10%.
Source text: as §1, §2, §3

Setting [6] is: Homo sapiens, MCF7, 72 h treatment.
[7] abbreviates: Homo sapiens, HT-29, 72 h treatment.

Results on six compounds are retold here after article PMC10821019, “F16 Hybrids Derived from Steviol or Isosteviol Are Accumulated in the Mitochondria of Tumor Cells and Overcome Drug Resistance” (Molecules, 2024).

The structures appear in SMILES notation. Values joined by “and” are separate entries in the source; they are usually repeats but may differ in a detail not shown here. Equal values may be shown once.

A word on the IC50: it is the point on the concentration scale where inhibition reaches its midpoint. Low readings indicate greater potency in that assay, high ones weaker potency in that assay. The term melting point denotes the temperature, or range, at which the solid turns liquid. `C(=C\c1c[nH]c2ccccc12)/c1ccccn1` [Compound 3, 3-[(E)-2-Pyridin-2-yl-ethenyl]-1H-indole] showed a melting point of 185 to 187 °C. In the data set with MCF7 (breast carcinoma) (setting [6]), this compound registered an IC50 of 1120 nM. Further, the 50% inhibitory concentration (IC50) at 72 h in data set [1] amounted to 87400 nM. Also, the IC50 in [2] (Homo sapiens, A2780cis) came out at 39200 nM. The “resistance index (RI)” value in data set [2] turned out to be 32.88. The “selectivity index 1 (SI 1)” value in data set [3] was determined as 73.27. Further, half-maximal inhibition in data set [3] (Homo sapiens, A2780) (IC50) was put at 1190 nM. In the data set with A549 (lung carcinoma), the “selectivity index 2 (SI 2)” value was determined as 3.33. The same compound had an IC50 in the data set with A549 (lung carcinoma) (Homo sapiens, A549) of 26300 nM. The compound further had an IC50 in data set [4] (setting [7]) of 28700 nM.

Regarding `C(=C\c1c[nH]c2ccccc12)/c1cccnc1` [Compound 4, 3-[(E)-2-Pyridin-3-yl-ethenyl]-1H-indole], the concentration for half-maximal inhibition (IC50) in the data set with MCF7 (breast carcinoma) (setting [6]) came to 5180 nM; in [2] (Homo sapiens, A2780cis) it was 21000 nM; in data set [3] (Homo sapiens, A2780), 1170 nM; in the data set with A549 (lung carcinoma) (Homo sapiens, A549) it was 16400 nM; in data set [4] (setting [7]), 7830 nM. The compound also came in with an IC50 at 72 h in data set [1] of 90300 nM. The “resistance index (RI)” value in data set [2] stood at 17.97. For the same compound, the “selectivity index 1 (SI 1)” value in [3] is 77.40. In addition, the “selectivity index 2 (SI 2)” value with A549 (lung carcinoma) came out at 5.50.

Consider `C(=C\c1c[nH]c2ccccc12)/c1ccncc1` [Compound 5, 3-[(E)-2-Pyridin-4-yl-ethenyl]-1H-indole], for which the melting point fell in the range of 254 to 255 °C. Also, 10900 nM corresponded to half-maximal inhibition in the data set with MCF7 (breast carcinoma) (setting [6]) (IC50). Also, the IC50 at 72 h in data set [1] amounted to 100000 nM. This compound also came in with a concentration for half-maximal inhibition (IC50) in data set [2] (Homo sapiens, A2780cis) of 16400 nM. In data set [2], the “resistance index (RI)” value is on record as 7.26. The “selectivity index 1 (SI 1)” value in [3] is on record as 44.21. The compound also yielded an IC50 in [3] (Homo sapiens, A2780) of 2260 nM. Also, the “selectivity index 2 (SI 2)” value in the data set with A549 (lung carcinoma) was 6.49. In the data set with A549 (lung carcinoma) (Homo sapiens, A549), this compound had an IC50 of 15400 nM. The same compound registered a 50% inhibitory concentration (IC50) in data set [4] (setting [7]) of 16500 nM. Besides, the subcellular accumulation result in the data set on A549 cells was “preferential mitochondrial localization”.

In the data set on MCF7 (breast carcinoma) (72 h treatment), `CC12CCC3C(CCC4C(C)(C(=O)OCCC[n+]5ccc(C=Cc6c[nH]c7ccccc67)cc5)CCCC34C)(CC1=O)C2.[Br-]` (stereo not drawn) [Compound 17, 3-{4-[(E)-2-(1H-Indol-3-yl)ethenyl]-pyridinium-1-yl}-propyl (4α, 8β, 13β) 13-Methyl-16-oxo-17-norkauran-18-oate Bromide] yielded an IC50 of 590 nM. Also, the IC50 in data set [5] stood at 19900 nM. In data set [2], the “drug resistance in the A2780/A2780cis model, in words” value was “able to reduce or even overcome drug resistance”; 300 nM corresponded to half-maximal inhibition (IC50); the “resistance index (RI)” value is given as 1.07. Besides, in data set [3], the “selectivity index 1 (SI 1)” value stood at 71.25; the IC50 turned out to be 280 nM; the “tumor cell selectivity, in words” value is “retained selectivity”. Also, in the data set on A549 (lung carcinoma), the “selectivity index 2 (SI 2)” value turned out to be 5.88 and 3390 nM corresponded to half-maximal inhibition (IC50). The compound also returned a half-maximal inhibitory concentration (IC50) in data set [4] (72 h treatment) of 760 nM. Further, in the data set on A549 cells, the subcellular accumulation result was “preferential mitochondrial localization”.

On to `CC12CCC3C(CCC4C(C)(C(=O)OCCCC[n+]5ccc(C=Cc6c[nH]c7ccccc67)cc5)CCCC34C)(CC1=O)C2.[Br-]` (stereo not drawn) [Compound 25, 4-{4[(E)-2-(1H-Indol-3-yl)ethenyl]-pyridinium-1-yl}butyl (4α, 8β, 13β) 13-Methyl-16-oxo-17-norkauran-18-oate Bromide], for which the half-maximal inhibitory concentration (IC50) in the data set on MCF7 (breast carcinoma) (72 h treatment) was 490 nM; in data set [5] it was 10800 nM; in data set [2], 310 nM; in [3] it was 180 nM; in the data set with A549 (lung carcinoma) it was 2620 nM; in data set [4] (72 h treatment) it was 880 nM. The “drug resistance in the A2780/A2780cis model, in words” value in data set [2] is reported as “able to reduce or even overcome drug resistance”. Further, the “resistance index (RI)” value in [2] was found to be 1.70. Besides, the “selectivity index 1 (SI 1)” value in data set [3] was 59 and 59.32. For the same compound, the “tumor cell selectivity, in words” value in [3] is recorded as “retained selectivity”. In the data set with A549 (lung carcinoma), the “selectivity index 2 (SI 2)” value is on record as 4.14. Moreover, in the data set with A549 cells, the subcellular accumulation result was “preferential mitochondrial localization”.

For the compound `COc1cccc2c1C(=O)c1c(O)c3c(c(O)c1C2=O)C[C@@](O)(C(=O)CO)C[C@@H]3O[C@H]1C[C@H](N)[C@H](O)[C@H](C)O1` [DOX, doxorubicin, reference compound], the IC50 amounted to 83 nM in the data set with MCF7 (breast carcinoma) (setting [6]); 109 nM in data set [2] (Homo sapiens, A2780cis); 7 nM in [3] (Homo sapiens, A2780); 17 nM in the data set on A549 (lung carcinoma) (Homo sapiens, A549); 98 nM in data set [4] (setting [7]). Moreover, the 50% inhibitory concentration (IC50) at 72 h in [1] is 242 nM. The “resistance index (RI)” value was 14.7 in data set [2] and “approximately 14” in [2] (listed as doxorubicin). Also, the “selectivity index 1 (SI 1)” value in data set [3] is 32.7. Besides, the “selectivity index 2 (SI 2)” value in the data set on A549 (lung carcinoma) came to 13.9.
